The source of these data is patent US7968572B2, “Nitrogen-containing heterocyclic compound and pharmaceutical application thereof” (Ono Pharmaceuticals Co., Ltd., priority 2005, dated 2011).

Each structure is given as a SMILES string.

Series [1] concerns TNF-α production induced by lipopolysaccharide (LPS) in rats. The series is described as follows: Rat cytokine-production model. The note with it: male SD rat, oral 0.3 mg/kg, LPS 10 μg/kg intravenously after 8 hours, plasma TNF-α ninety minutes after LPS; read-out: Inhibition rate (%) (Dose of compound: 0.3 mg/kg). It counts as in vivo. The protocol: Rat Cytokine-Production Model
The in vivo effect of the compound of the present invention was studied on TNF-α production induced by lipopolysaccharide (LPS) in rats.
A vehicle containing the compound of the present invention was orally administered to male SD rat (Charles River Japan, Inc.), and after 8 hours, lipopolysaccharide (LPS, 055:B5, Difco) was intravenously administered at the dose of 10 μg/kg (5 animals/group). Only a vehicle was orally administered to a control group (5 animals). Ninety minutes after the LPS treatment, heparinized blood collection was performed via the abdominal vena cava under anesthesia with ether, and blood plasma was obtained by centrifugation (12,000 rpm, 3 minutes, 4° C.). The obtained blood plasma sample was stored at −80° C. until it was used. TNF-α in the blood plasma was measured using an ELISA kit from R&D System (#RTA00).
The inhibitory activity of the compound of the present invention against TNF-α production was calculated as an inhibition rate (%) according to the following equation: Inhibition rate (%)={(AC−AX)/AC}×100
wherein AC is a measured value in case where no test compound was administered under LPS induction, and
AX is a measured value in case where a test compound was administered under LPS induction.

In series [2] the test system is Chinese hamster lung cells (CHL/IU). Kind of series: Phospholipidosis detection system using a fluorescence labeling phospholipid analog (NBD-PE). It counts as cell-based. As for the experimental part:
Study by a Phospholipidosis Detection System using a Fluorescence Labeling Phospholipid Analog Cell suspension (7×10^4 cells/ml) of Chinese hamster lung cells (CHL/IU) prepared using MEM (minimum essential medium) was added to a 96 well plate (96 well clear bottom plate) by 100 μL/necessary number of wells (2 wells for 1 dosage) and cultured for about 24 hours. After the culturing and subsequent removal of the supernatants on the 96 well plate, the compounds having respective concentrations prepared by dissolving or suspending in MEM medium containing 25 μmol/L of nitrobenzoxazole dipalmitoyl phosphatidyl ethanolamine (NBD-PE) (hereinafter abbreviated to NBD-PE medium) were added thereto by 100 μL/ well and treated for about 24 hours. Treating concentration of each compound was set to be 6.25, 12.5, 25, 50 or 100 μmol/L. […] In this connection, 5 wells of an untreated control (MEM medium alone) or an NBD-PE control (prepared by adding 1/100 volume of DMSO to the NBD-PE medium) were arranged for each compound and cultured in the same manner. After completion of the culturing and subsequent two times of washing with 100 μL/well of phosphate buffered saline (hereinafter abbreviated to PBS) (−), 100 μL of the MEM medium was added to all of the treated wells including two empty wells for the WST-1 background control and cultured for about 0.5 hour. Fluorescence intensity of each well was measured using a microplate reader (manufactured by Molecular Devices, SPECTRA max M2; excitation wavelength 485 nm/fluorescence wavelength 535 nm). Using average value of 2 wells for each dosage, the phospholipid increasing ratio (%) based on NBD-PE control was calculated using the following formula. Phospholipid accumulation increasing ratio (%)=100×(fluorescence intensity of substance to be tested−fluorescence intensity of untreated control)/(fluorescence intensity of NBD-PE control−fluorescence intensity of untreated control) (iii) Cytotoxicity Test The Pre value was calculated by measuring the 96 well plate which was measured in the measurement of phospholipid accumulation, using the microplate reader (manufactured by Molecular Devices, SPECTRA max M2) at a dominant wavelength of 450 nm and a correction wavelength of 690 nm. Premix WST-1 was added to the pre-measured 96 well plate by 5 μL/well. After 2 to 4 hours of culture, the Aft value was calculated by measuring in the same manner as in the Pre measurement. The background control value was subtracted from each of the measured values. Using the value obtained by subtracting the Pre value from the Aft value, the cell growth ratio (%) was calculated using the following formula.

The target in series [3] is T1, recombinant human p38α MAP kinase (Homo sapiens, UniProt Q16539).
T1 construct: purchased Upstate Biotechnology #14-251
T1 sequence (Q16539 whole entry): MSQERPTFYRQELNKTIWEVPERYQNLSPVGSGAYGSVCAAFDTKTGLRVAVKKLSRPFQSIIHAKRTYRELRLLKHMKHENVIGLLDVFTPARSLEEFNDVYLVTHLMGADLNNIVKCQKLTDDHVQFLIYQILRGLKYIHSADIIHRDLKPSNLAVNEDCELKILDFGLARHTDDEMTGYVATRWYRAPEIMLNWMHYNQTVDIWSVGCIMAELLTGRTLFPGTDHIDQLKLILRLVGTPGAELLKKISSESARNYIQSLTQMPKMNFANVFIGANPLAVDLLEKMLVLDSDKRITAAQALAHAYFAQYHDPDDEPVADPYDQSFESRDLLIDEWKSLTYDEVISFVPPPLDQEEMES
Kind of series: Study on p38α MAP kinase inhibitory activity (ATF2 phosphorylation, Alpha Screen). It counts as biochemical. The settings on record: biotinylated ATF2 substrate, 30° C. for 30 minutes. As for the experimental part:
Study on p38α MAP Kinase Inhibitory Activity
Using activating transcription factor-2 (hereinafter abbreviated to ATF2) which is a substrate for p38α MAP kinase, the inhibitory action of the compounds of the present invention was investigated on the phosphorylation by a recombinant human p38α MAP kinase.
A kinase buffer (25 mM Tris-HCl (pH 7.5), 5 mM β-glycerophosphate, 2 mM dithiothreitol, 0.1 mM Na3VO4, 10 mM MgCl2) containing a recombinant human p38α MAP kinase (Upstate Biotechnology #14-251) was added to a 384-well plate (5 μL) (6.25 ng protein/well) for fluorescence measurement. After addition of a kinase buffer (5 μL) containing the compound of the present invention, the resulting mixture was incubated at room temperature for 20 minutes. A substrate mixture (5 μL) of biotinylated ATF2 of 5 μg/mL (Upstate Biotechnology #14-432), adenosine triphosphate (90 μmol/L) (Sigma #FL-AAS) and anti-phosphorylated ATF2 antibody (20-fold dilution) (Cell Signaling Technology #9221L) prepared separately was added thereto, and enzyme reaction was carried out at 30° C. for 30 minutes. After the reaction, Hepes buffer (5 μL) containing 0.25% BSA and 100 mM EDTA was added to stop the enzyme reaction. The amount of a complex of the phosphorylated ATF2 and anti-phosphorylated ATF2 antibody produced by the reaction was measured using an Alpha Screen™ Rabbit Detection kit (Packard #6760607).
The p38α MAP kinase inhibitory activity, which is the effect of the compound of the present invention, was calculated as an inhibition rate (%) according to the following equation: Inhibition rate (%)={(AC−AX)/(AC−AB)}×100
wherein AB is a measured value without addition of the enzyme;
AC is a measured value with addition of the enzyme in the absence of a test compound; and
AX is a measured value with addition of the enzyme in the presence of a test compound.
(§1) Inhibition rate of compounds with each concentration was calculated, and a value indicating 50% inhibition (IC50) was determined from the inhibition curve.

The test system of series [4] is TNF-α production stimulated by lipopolysaccharide (LPS) in THP-1. The series is described as follows: Inhibitory activity against TNF-α production using human cell lines (LPS-stimulated THP-1). It counts as cell-based. The note with it: 1.5 h, THP-1 cells, LPS stimulation, 90 minutes at 37° C., TNF-α by ELISA. The protocol: Inhibitory Activity against TNF-α Production using Human Cell Lines
Using THP-1 which is a human monocytic cell line, the inhibitory effect of the compound of the present invention against TNF-α production stimulated by lipopolysaccharide (LPS) was studied.
Each 50 μL of lipopolysaccharide (LPS; 055:B5, Difco) prepared to a concentration of 40 ng/mL using RPMI-1640 medium containing 10% fetal calf serum (hereinafter abbreviated to RPMI-1640) and RPMI-1640 containing the compound of the present invention was added to a 96-well plate for cell culture. 100 μL of the cell suspension of THP-1 (Dainippon Pharmaceutical Co., Ltd, #06-202) prepared to a cell density of 2×10^6 cells/mL using RPMI-1640 was added and cultured for 90 minutes at 37° C. in an incubator (5% CO2, 95% air). After completion of the reaction, the culture medium supernatant was recovered and the amount of produced TNF-α was measured using an ELISA kit (Invitrogen, #850090192).
The inhibitory activity against TNF-α production, which is the effect of the compound of the present invention, was calculated as an inhibition rate (%) by the following equation: Inhibition rate (%)={(AC−AX)/(AC−AB)}×100
wherein AB is a measured value without LPS induction;
AC is a measured value with LPS induction in the absence of a test compound; and
AX is a measured value with LPS induction in the presence of a test compound.
as §1
(In general: ELISA stands for enzyme-linked immunosorbent assay.)

Series [5] in a line: Evaluation of artificial lipid membrane binding using a Biacore S51 system. The protocol:
Evaluation of Artificial Lipid Membrane Binding using a Biacore S51 (Registered Trademark) System
Using an aspirator, 10 mM of 1,2-dioleoyl-sn-glycero-3-phosphate monosodium salt (hereinafter abbreviated to DOPA) chloroform solution was evaporated to be dryness, and 0.6 mL of PBS/5% dimethyl sulfoxide (hereinafter abbreviated to DMSO) was added thereto. After carrying out thorough suspension by vortex, freezing and thawing were repeated for 5 times. Liposomes were prepared using a liposome preparation device (manufactured by Avestin Inc.) and two syringes and diluted to be 0.5 mM with PBS/5% DMSO just before the immobilization.
Each compound having a final concentration in PBS/5% DMSO of 50 μM was prepared by adding 38 μL of 1× PBS to 2 μL of 10 mM DMSO solution and further adding 360 μL of 1× PBS/5% DMSO and measured.
All of the following analyses were carried out using the Biacore S51 (registered trademark) system, and the measuring conditions were set up by Biacore S51 Control Software.
The measuring temperature was set to be 37° C., and PBS/5% DMSO (pH 7.4 or pH 6.0) was used as the buffer. Series S Sensor Chip L1 was used as the sensor chip. DOPA was immobilized on one of the measuring spots on the sensor surface, and the central spot was used as the reference.
Immobilization of the liposomes was carried out for about 3 minutes at a flow rate of 10 μL/minute, and then each compound was added thereto at a flow rate of 30 μL/minute to measure the interaction. The measuring conditions are as shown in the following.
Assay buffer: PBS/5% DMSO (pH 7.4 or pH 6.0)
Measuring temperature: 37° C.
Sensor chip: Series S Sensor Chip L1
Flow rate: 10 μL/minute at the time of liposome immobilization, 30 μL/minute at the time of interaction measurement
Regeneration: 20 mM CHAPS (3-[(3-cholamidopropyl)dimethylammonio]-1-propanesulfonate), an isopropanol/50 mM aqueous solution of sodium hydroxide=40/60 (volume ratio) mixed solution (60 seconds)
The data treatment was carried out in accordance with the method of Abdiche et al. (Analytical Biochemistry, 328, 233-243 (2004)) using Biacore S51 Evaluation Software.
After correcting infinitesimal error of the concentration of DMSO contained in the sample solution, the value of binding response (RU) obtained by subtracting the value of reference was divided by the sample molecular weight. Additionally, since the thus obtained value is proportional to the capturing amount of liposome, it was divided by the capturing amount at the time of the cycling and multiplied by 10^6 to be used as the correction value (correction value=1000000×RU (compound to be tested)/molecular weight (compound to be tested) RU (liposome)).
By adding propranolol, amiodarone, desipramine, imipramine and procaine as controls, it was confirmed that variation of the binding response is within about 10 to 15%.
Compounds having a binding response value after correction of 100 or more were judged positive.
(In general: Surface plasmon resonance follows binding to a sensor surface in real time, without labels.)

For orientation: IC50 means the midpoint of a concentration-inhibition curve.

In the case of `C[C@](O)(CO)c1nc(-c2ccc(F)cc2F)c(-c2ccc(=O)n(-c3c(F)cccc3F)c2)o1` [Example 210, 1-(2,6-difluorophenyl)-5-{4-(2,4-difluorophenyl)-2-[(1S)-1,2-dihydroxy-1-methylethyl]-1,3-oxazol-5-yl}-2(1H)-pyridinone], in series [1], the inhibition at 0.3 mg/kg was found to be 49%. In addition, the “Pospholipid accumulation increasing ratio (% of 30 uM amiodarone) (Dose of compound: 100 uM)” value in series [2] (compound 100 uM, about 24 hours with NBD-PE) is recorded as 8 % of 30 uM amiodarone. The Judgment entry in series [2] (phospholipidosis inducing activity, NBD-PE) is reported as “Negative”. The concentration for half-maximal inhibition (IC50) is 5.8 nM in series [3] and 0.7 nM in series [4].
Turning to `CC(C)(O)c1nc(-c2ccc(F)cc2F)c(-c2ccc(=O)n(-c3c(F)cccc3F)c2)o1` [Compound 89 (b), 1-(2,6-difluorophenyl)-5-[4-(2,4-difluorophenyl)-2-(1-hydroxy-1-methylethyl)-1,3-oxazol-5-yl]-2(1H)-pyridinone], in series [1], the inhibition at 0.3 mg/kg came out at 82%. In addition, the “Binding Level (RU)” value in series [5] (compound 50 μM, DOPA liposomes on Sensor Chip L1, 37° C., PBS/5% DMSO (pH 7.4 or pH 6.0)) was found to be 15.5 RU. Besides, in series [5] (phospholipidosis inducing activity judged from artificial lipid membrane binding), the Judgment entry is recorded as “Negative”. The results for the IC50 in series [3] and in series [4] were 1.7 nM and 0.7 nM, respectively.
Turning to `Cc1cc(Cl)cc(C)c1-n1cc(-c2nc(C(C)(CO)CO)oc2-c2ccc(F)cc2F)ccc1=O` [Compound 6a, 1-(4-chloro-2,6-dimethylphenyl)-5-{5-(2,4-difluorophenyl)-2-[2-hydroxy-1-(hydroxymethyl)-1-methylethyl]-1,3-oxazol-4-yl}-2(1H)-pyridinone], the half-inhibitory concentration (IC50) was determined as 12 nM in series [3] and 2.6 nM in series [4].
